Patent US10344025B2, “GLS1 inhibitors for treating disease” (Board of Regents, The University of Texas System, priority 2014, dated 2019)

Tests used:
[1] = target: purified recombinant human GAC (GLS1) (Homo sapiens (Human), UniProt O94925); assay: GLS1 Enzymatic Activity Assay (dual-coupled enzymatic assay, resorufin/Amplex UltraRed readout); assay type: biochemical;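 further: glutamate from GAC coupled via glutamate oxidase and peroxidase to resorufin, read as fluorescence (ex 530, em 590 nm) kinetically or at 20 min, four-parameter logistic IC50 fit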
purified recombinant human GAC (GLS1), sequence (O94925 other isoform, or with tags, fused parts or gaps): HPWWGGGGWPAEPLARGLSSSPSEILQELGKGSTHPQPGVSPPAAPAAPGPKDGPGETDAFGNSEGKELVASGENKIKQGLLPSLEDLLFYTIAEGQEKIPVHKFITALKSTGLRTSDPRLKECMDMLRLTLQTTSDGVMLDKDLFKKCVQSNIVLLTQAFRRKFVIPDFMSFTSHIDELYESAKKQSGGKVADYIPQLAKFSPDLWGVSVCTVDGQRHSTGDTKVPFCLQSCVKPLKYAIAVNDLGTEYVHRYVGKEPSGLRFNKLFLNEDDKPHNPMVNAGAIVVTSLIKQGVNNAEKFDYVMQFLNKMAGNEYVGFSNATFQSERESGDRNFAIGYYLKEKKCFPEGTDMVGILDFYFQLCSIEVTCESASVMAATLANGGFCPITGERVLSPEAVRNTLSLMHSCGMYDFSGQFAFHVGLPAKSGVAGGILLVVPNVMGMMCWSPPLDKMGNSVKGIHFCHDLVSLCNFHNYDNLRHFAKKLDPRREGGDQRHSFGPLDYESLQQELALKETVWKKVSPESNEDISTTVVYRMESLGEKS

A549 cells = assay: Proliferation Assay (A549 viability, Cell Titer Fluor, 72 hours); assay type: cell-based; details: Homo sapiens, A549, 72 h
Outline: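 A549 cells seeded at 1000 cells/well, rested 24 h, then exposed to compound in 0.5% DMSO for 72 h at 37 °C. Viability read by Cell Titer Fluor fluorescence; IC50 from four-parameter logistic fit.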

IC50 [1] [µM] | EC50 (A549 cells) [µM] | SMILES
< 0.1 | 0.1 to 0.5 | CC(C)(O)c1ccc(CNC(=O)c2cn(CCCCn3cc(C(=O)NCc4cccc(C5CC5)c4)nn3)nn2)cn1 [Example 123, N-[(3-cyclopropylphenyl)methyl]-1-{4-[4-({[6-(2-hydroxypropan-2-yl)pyridin-3-yl]methyl}carbamoyl)-1H-1,2,3-triazol-1-yl]butyl}-1H-1,2,3-triazole-4-carboxamide]
< 0.1 | < 0.1 | O=C(Cc1cccc(OC(F)(F)F)c1)Nc1cn(CCC(F)Cn2cc(C(=O)NCc3cc(C(F)(F)F)ccn3)nn2)nn1 (centres unmarked) [Example 407, 1-[2-fluoro-4-(4-{2-[3-(trifluoromethoxy)phenyl]acetamido}-1H-1,2,3-triazol-1-yl)butyl]-N-{[4-(trifluoromethyl)pyridin-2-yl]methyl}-1H-1,2,3-triazole-4-carboxamide]
< 0.1 | < 0.1 | O=C(Cc1cc(OC(F)(F)F)ccc1F)Nc1cn(CCC(F)Cn2cc(C(=O)NCc3ccccn3)nn2)nn1 (centres unmarked) [Example 398, 1-[2-fluoro-4-(4-{2-[2-fluoro-5-(trifluoromethoxy)phenyl]acetamido}-1H-1,2,3-triazol-1-yl)butyl]-N-(pyridin-2-ylmethyl)-1H-1,2,3-triazole-4-carboxamide]
< 0.1 | < 0.1 | O=C(Cc1cc(OC(F)(F)F)ccc1F)Nc1nnc(CCC(F)Cn2cc(C(=O)NCc3ccccn3)nn2)s1 (centres unmarked) [Example 204, 1-(2-fluoro-4-(5-(2-(2-fluoro-5-(trifluoromethoxy)phenyl)acetamido)-1,3,4-thiadiazol-2-yl)butyl)-N-(pyridin-2-ylmethyl)-1H-1,2,3-triazole-4-carboxamide]
0.1 to 0.5 | 0.1 to 0.5 | CNC(=O)c1cn(CC(F)CCn2cc(C(=O)NCc3cc(OC(F)(F)F)ccc3F)nn2)nn1 (centres unmarked) [Example 150, 1-{2-fluoro-4-[4-({[2-fluoro-5-(trifluoromethoxy)phenyl]methyl}carbamoyl)-1H-1,2,3-triazol-1-yl]butyl}-N-methyl-1H-1,2,3-triazole-4-carboxamide]
< 0.1 | < 0.1 | CNC(=O)c1cn(C[C@H](F)CCc2ccc(NC(=O)Cc3cc(C4CC4)ccn3)nn2)nn1 [Example 275, (R)-1-(4-(6-(2-(4-cyclopropylpyridin-2-yl)acetamido)pyridazin-3-yl)-2-fluorobutyl)-N-methyl-1H-1,2,3-triazole-4-carboxamide]
0.1 to 0.5 | 0.1 to 0.5 | O=C(NCc1cccc(OC(F)(F)F)c1)c1cn(CCCCn2cc(C(=O)NCC3CCCCO3)nn2)nn1 (centres unmarked) [Example 118, N-(oxan-2-ylmethyl)-1-{4-[4-({[3-(trifluoromethoxy)phenyl]methyl}carbamoyl)-1H-1,2,3-triazol-1-yl]butyl}-1H-1,2,3-triazole-4-carboxamide]
< 0.1 | < 0.1 | Cc1ccc(CNC(=O)c2nnc(CCC(F)Cn3cc(C(=O)NCc4cc(OC(F)(F)F)ccc4F)nn3)s2)cn1 (centres unmarked) [Example 443, 5-{3-fluoro-4-[4-({[2-fluoro-5-(trifluoromethoxy)phenyl]methyl}carbamoyl)-1H-1,2,3-triazol-1-yl]butyl}-N-[(6-methylpyridin-3-yl)methyl]-1,3,4-thiadiazole-2-carboxamide]
< 0.1 | 0.1 to 0.5 | O=C(Cc1cccc(OC(F)(F)F)c1)Nc1ccc(CCCCn2cc(C(=O)NCC3COC3)nn2)nn1 [Example 550, N-(oxetan-3-ylmethyl)-1-[4-(6-{2-[3-(trifluoromethoxy)phenyl]acetamido}pyridazin-3-yl)butyl]-1H-1,2,3-triazole-4-carboxamide]
0.1 to 0.5 | 0.1 to 0.5 | O=C(NCc1cc(C(F)(F)F)ccn1)c1cn(CC(F)CCc2nnc(C(=O)NCC(F)(F)F)s2)nn1 (centres unmarked) [Example 499, 5-{3-fluoro-4-[4-({[4-(trifluoromethyl)pyridin-2-yl]methyl}carbamoyl)-1H-1,2,3-triazol-1-yl]butyl}-N-(2,2,2-trifluoroethyl)-1,3,4-thiadiazole-2-carboxamide]
< 0.1 | < 0.1 | O=C(NCc1cccc(C(F)(F)F)c1)c1cn(CC(F)CCc2nnc(C(=O)NCc3cncc(C(F)(F)F)c3)s2)nn1 (centres unmarked) [Example 484, 5-{3-fluoro-4-[4-({[3-(trifluoromethyl)phenyl]methyl}carbamoyl)-1H-1,2,3-triazol-1-yl]butyl}-N-{[5-(trifluoromethyl)pyridin-3-yl]methyl}-1,3,4-thiadiazole-2-carboxamide]
0.1 to 0.5 | 0.5 to 5 | O=C(Cc1ccc(Cl)cc1F)Nc1cn(CCCCn2cc(C(=O)NCc3ccccn3)nn2)nn1 [Example 366, 1-(4-{4-[2-(4-chloro-2-fluorophenyl)acetamido]-1H-1,2,3-triazol-1-yl}butyl)-N-(pyridin-2-ylmethyl)-1H-1,2,3-triazole-4-carboxamide]
< 0.1 | < 0.1 | CNC(=O)c1cn(CCCCc2nnc(NC(=O)Cc3cccc(OC(F)(F)F)c3)s2)nn1 [Example 2, N-Methyl-1-(4-(5-(2-(3-(trifluoromethoxy)phenyl)acetamido)-1,3,4-thiadiazol-2-yl)butyl)-1H-1,2,3-triazole-4-carboxamide]
0.1 to 0.5 | 0.5 to 5 | O=C(NCc1cccc(OC(F)(F)F)c1)c1cn(CCCCc2nnc(C(=O)NCCO)s2)nn1 [Example 45, N-(2-hydroxyethyl)-5-{4-[4-({[3-(trifluoromethoxy)phenyl]methyl}carbamoyl)-1H-1,2,3-triazol-1-yl]butyl}-1,3,4-thiadiazole-2-carboxamide]
< 0.1 | < 0.1 | CC1(C)Oc2ccc(CNC(=O)c3cn(CCCCn4cc(C(=O)NCc5cncc(C(F)(F)F)c5)nn4)nn3)cc2O1 [Example 136, 1-[4-(4-{[(2,2-dimethyl-2H-1,3-benzodioxol-5-yl)methyl]carbamoyl}-1H-1,2,3-triazol-1-yl)butyl]-N-{[5-(trifluoromethyl)pyridin-3-yl]methyl}-1H-1,2,3-triazole-4-carboxamide]
< 0.1 | 0.1 to 0.5 | O=C(Cc1cccc(OC(F)(F)F)c1)Nc1nnc(CCCCn2cc(C(=O)N[C@H](CO)c3ccccc3)nn2)s1 [Example 23, N-[(1S)-2-hydroxy-1-phenylethyl]-1-[4-(5-{2-[3-(trifluoromethoxy)phenyl]acetamido}-1,3,4-thiadiazol-2-yl)butyl]-1H-1,2,3-triazole-4-carboxamide]
< 0.1 | < 0.1 | O=C(Cc1ccccn1)Nc1nnc(CCC(F)Cn2cc(C(=O)NCc3cc(OC(F)(F)F)ccc3F)nn2)s1 (centres unmarked) [Example 514, 1-(2-fluoro-4-{5-[2-(pyridin-2-yl)acetamido]-1,3,4-thiadiazol-2-yl}butyl)-N-{[2-fluoro-5-(trifluoromethoxy)phenyl]methyl}-1H-1,2,3-triazole-4-carboxamide]
< 0.1 | < 0.1 | CNC(=O)c1cn(CCCCc2ccc(NC(=O)CN3CCN(Cc4cccc(OC(F)(F)F)c4)CC3=O)nn2)nn1 [Example 247, N-methyl-1-(4-(6-(2-(2-oxo-4-(3-(trifluoromethoxy)benzyl)piperazin-1-yl)acetamido)pyridazin-3-yl)butyl)-1H-1,2,3-triazole-4-carboxamide]
< 0.1 | < 0.1 | O=C(Cc1cccc(OC(F)(F)F)c1)Nc1nnc(CCCCn2cc(C(=O)NCc3cccc(OC(F)(F)F)c3)nn2)s1 [Example 20, 1-[4-(5-{2-[3-(trifluoromethoxy)phenyl]acetamido}-1,3,4-thiadiazol-2-yl)butyl}-N-{[3-(trifluoromethoxy)phenyl]methyl}-1H-1,2,3-triazole-4-carboxamide]
< 0.1 | < 0.1 | O=C(NCc1cc(C(F)(F)F)ccn1)c1cn(CCC(F)Cn2cc(C(=O)NCc3cncc(C(F)(F)F)c3)nn2)nn1 (centres unmarked) [Example 145, 1-{3-fluoro-4-[4-({[5-(trifluoromethyl)pyridin-3-yl]methyl}carbamoyl)-1H-1,2,3-triazol-1-yl]butyl}-N-1{[4-(trifluoromethyl)pyridin-2-yl]methyl}-1H-1,2,3-triazole-4-carboxamide]
0.5 to 5 | > 5 | CNC(=O)c1nnc(CCCCn2cc(C(=O)NCc3cc(C(F)(F)F)ccn3)nn2)s1 [Example 603, N-methyl-5-(4-(4-(((4-(trifluoromethyl)pyridin-2-yl)methyl)carbamoyl)-1H-1,2,3-triazol-1-yl)butyl)-1,3,4-thiadiazole-2-carboxamide]
< 0.1 | < 0.1 | O=C(Cc1cc(OC(F)(F)F)ccc1F)Nc1cn(CC(F)CCn2cc(C(=O)NCc3cc(OC(F)(F)F)ccc3F)nn2)nn1 (centres unmarked) [Example 377, 1[3-fluoro-4-(4-{2-[2-fluoro-5-(trifluoromethoxy)phenyl]acetamido}-1H-1,2,3-triazol-1-yl)butyl]-N-{[2-fluoro-5-(trifluoromethoxy)phenyl]methyl}-1H-1,2,3-triazole-4-carboxamide]
< 0.1 | < 0.1 | COc1ccnc(CNC(=O)c2cn(CC(F)CCc3nnc(NC(=O)Cc4cc(OC(F)(F)F)ccc4F)s3)nn2)c1 (centres unmarked) [Example 205, 1-(2-fluoro-4-(5-(2-(2-fluoro-5-(trifluoromethoxy)phenyl)acetamido)-1,3,4-thiadiazol-2-yl)butyl)-N-((4-methoxypyridin-2-yl)methyl)-1H-1,2,3-triazole-4-carboxamide]
< 0.1 | 0.5 to 5 | Cc1ccc(CNC(=O)c2cn(CCCCn3cc(NC(=O)Cc4ccc(C)nc4)nn3)nn2)cn1 [Example 316, 1-(4-{4-[2-(6-methylpyridin-3-yl)acetamido]-1H-1,2,3-triazol-1-yl}butyl)-N-[(6-methylpyridin-3-yl)methyl]-1H-1,2,3-triazole-4-carboxamide]
< 0.1 | 0.1 to 0.5 | Cc1ccc(CC(=O)Nc2cn(CCCCn3cc(C(=O)NCc4cc(Cl)ccc4F)nn3)nn2)cn1 [Example 336, N-[(5-chloro-2-fluorophenyl)methyl]-1-(4-{4-[2-(6-methylpyridin-3-yl)acetamido]-1H-1,2,3-triazol-1-yl}butyl)-1H-1,2,3-triazole-4-carboxamide]
